Assay results reported in patent publication US7560487B2, “Use of (R)—ibuprofen methanesulfonamide and salts thereof in the treatment and prevention of rejection reactions of transplanted organs” (Dompé Pha.r.ma S.p.A., priority 2001, dated 2009).
Several values for one entry are separate records, joined by “and”; a condition that tells them apart may be missing. Equal entries are not always repeated.

Tests used:
IL-8 = conditions: in vitro; described in WO 00/24710; cited from earlier work
[1] = system: rats receiving syngeneic kidney transplant; test: Plasma creatinine after syngeneic kidney transplant (cold ischemia/reperfusion); format: in vivo, Lewis rats; conditions: for Plasma Creatinine 16 h: 16 h after transplant; for Plasma Creatinine 16 h / Plasma Creatinine 24 h: 15 mg/kg; for Plasma Creatinine 24 h: 24 h after transplant
Description: (§1) Adult male Lewis rats (RT11) (Charles River, Calco Italia S.p.A, Italy) were used. All animals were allowed free access to food and water. The study was performed in a syngeneic kidney transplant model using such rats as donor and graft recipients. Donor animals were anaesthetized with leptofen. The left kidney was prepared by freeing the ureter from the attachments. The renal artery was separated from the renal vein by dissection. The donor kidney and ureter were removed “en bloc” and flushed with Belzer (UW) containing 1000 U/ml of heparin. Then the kidney was placed in an iced Belzer (UW) solution for 4-6 hours (cold ischemia) until transplant. Recipients were prepared by removal of the left kidney. Animal treatment with DF 1681B is summarized below. Kidney grafts were washed with saline solution before transplant. An anastomosis was created between the recipient and the donor renal artery as well as renal vein with end-to-end anastomosis. Vascular clamps were released after 30 minutes (warm ischemia). Donor and recipient ureters were attached end-to-end. The native right kidney was then removed. Animals were placed in individual metabolic cages for measurements of daily urine output as an index of renal function recovery. After 16 and 24 hours, renal function was assessed by measuring plasma creatinine concentration. Twenty-four hours after kidney transplantation, the animals were sacrificed. The kidney graft was removed, cut in slices and put in Dubosq-Brazil solution for the analysis of conventional histology by light microscopy. Moreover, additional kidney fragments were frozen in liquid nitrogen and used for immunohistochemical analysis of inflammatory cell infiltrate (polymorphonuclear cells, MHC class II positive cells).
(§2) Group 1 (n.=3) rats recipients of a kidney graft exposed to 4 hours cold ischemia and treated with the IL-8 inhibitor DF 1681B.
(§3) Group 2 (n.=3) rats recipients of a kidney graft exposed to 4 hours cold ischemia and treated with the vehicle.
(§4) Group 3 (n.=3) rats recipients of a kidney graft exposed to 6 hours cold ischemia and treated with the IL-8 inhibitor DF 1681B.
(§5) Group 4 (n.=3) rats recipients of a kidney graft exposed to 6 hours cold ischemia and treated with the vehicle.
(§6) The recipients were pretreated the day before the experiment (15 mg/kg s.c.). The animals received an intravenous injection of DF 1681B (15 mg/kg) immediately before reperfusion of the transplanted kidney. Additional administration of the compound (15 mg/kg s.c.) was performed 2 hours after transplantation. Control animals were given vehicle at the same time points and using the same administration method as for animals treated with DF 1681B.
(§7) Data were analyzed using the non-parametric Kruskal-Wallis test for multiple comparisons or the Tukey-Cicchetti test.

[2] = system: rats receiving syngeneic kidney transplant; test: Immunohistochemical granulocyte count in transplanted kidney, syngeneic transplant; format: in vivo, Lewis rats; design: Granulocytes Intravasc.: unit not given here; conditions: for Granulocytes Inrterstitial / Granulocytes Intraglom / Granulocytes Intravasc. / Granulocytes Periglom. / Granulocytes Perivasc.: 24 h post-transplant
Description: as §1, §2, §3, §4, §5, §6, §7

[3] = system: rats receiving syngeneic kidney transplant; test: MHC II positive interstitial cell count in transplanted kidney, syngeneic transplant; format: in vivo, Lewis rats; design: MHC II+ interstitial cells: unit not given here
Description: as §1, §2, §3, §4, §5, §6, §7

[4] = system: rats receiving syngeneic kidney transplant; test: Semi-quantitative histological score for renal damage, syngeneic transplant; format: in vivo, Lewis rats
Description: as §1, §2, §3, §4, §5, §6, §7

[5] = system: rats receiving allogeneic kidney transplant; test: Plasma creatinine after allogeneic kidney transplant; format: in vivo, Brown Norway rats; conditions: for Plasma Creatinine 16 h / Plasma Creatinine 24 h: allogeneic, 6 h cold ischemia
Description: The following experimental group of animals were considered:
Group 1 (n=9) Brown Norway rats recipients of a kidney graft of Lewis rats exposed to 6 hours cold ischemia and treated with vehicle.
Group 2 (n=5) Brown Norway rats recipients of a kidney graft of Lewis rats exposed to 6 hours cold ischemia and treated with the IL-8 inhibitor DF 1681B.
as §6, with “experiment (20” for “experiment (15”, “The animal” for “The animals”, “1681B (20” for “1681B (15”, “compound (20” for “compound (15”
as §7

mouse model = test: Chemotaxis in vivo in a mouse model
[6] = system: models of ischemia/reperfusion injury; test: PMN infiltration in models of ischemia/reperfusion injury, mice; format: in vivo
[7] = system: models of ischemia/reperfusion injury; test: PMN infiltration in models of ischemia/reperfusion injury, rats; format: in vivo
[8] = 4 h cold ischemia, group mean ± SD
[9] = 4 h cold ischemia, individual rats, 15 mg/kg s.c./i.v./s.c.
[10] = 6 h cold ischemia, group mean ± SD
[11] = 6 h cold ischemia, individual rats
[12] = 4 h cold ischemia, individual rats, high-power fields (X400)
[13] = 6 h cold ischemia, individual rats, high-power fields (X400)
[14] = 4 h cold ischemia, 24 h after transplantation, individual rats
[15] = 6 h cold ischemia, 24 h after transplantation, individual rats
[16] = individual Brown Norway rats, 20 mg/kg s.c./i.v./s.c.

## CC(C)Cc1ccc([C@@H](C)C(=O)NS(C)(=O)=O)cc1 [(R)-ibuprofen methanesulfonamide, R(−)-N-[2-(4-Isobutylphenyl)propionyl]-methanesulfonamide]
IL-8
  Inhibition of the chemotaxis of neutrophils induced by IL-8: selective in vitro inhibitors

## CC(C)Cc1ccc([C@@H](C)C(=O)NS(C)(=O)=O)cc1.NCCCC[C@H](N)C(=O)O [DF1681B, R(−)-N-[2-(4-Isobutylphenyl)propionyl]-methanesulfonamide salt of L(+)-lysine]
[1]; [8]
  Plasma Creatinine 16 h: 0.91 ± 0.18° mg/dl
  Plasma Creatinine 24 h: 0.78 ± 0.19° mg/dl
[1]; [9]
  Plasma Creatinine 16 h: 1.09 mg/dL and 0.74 mg/dL and 0.89 mg/dL
  Plasma Creatinine 24 h: 0.99 mg/dL and 0.64 mg/dL and 0.71 mg/dL
[1]; 4 h ischemic kidneys
  Renal function (plasma creatinine), effect in words: protected animals from renal function deterioration
[1]; [10]
  Plasma Creatinine 16 h: 2.23 ± 0.36*Δ mg/dl
  Plasma Creatinine 24 h: 1.83 ± 0.09 mg/dL
[1]; [11]
  Plasma Creatinine 16 h: 2.32 mg/dL and 2.54 mg/dL and 1.84 mg/dL
  Plasma Creatinine 24 h: 1.89 mg/dL and 1.87 mg/dL and 1.72 mg/dL
[1]; 6 hours ischemia
  Plasma creatinine concentrations, effect in words: significantly reduced plasma creatinine concentrations
[2]; [8]
  Granulocytes Inrterstitial: 12.1 ± 3.7
  Granulocytes Intraglom: 9.5 ± 3.9
  Granulocytes Intravasc.: 3.2 ± 4.3
  Granulocytes Periglom.: 5.4 ± 1.5
  Granulocytes Perivasc.: 5.4 ± 2.5
[2]; [12]
  Granulocytes Inrterstitial: 9.1 ± 6.4 and 11 ± 4.8 and 16.2 ± 8.3
  Granulocytes Intraglom: 7.4 ± 4.7 and 14 ± 15.4 and 7 ± 2.9
  Granulocytes Intravasc.: 1.5 ± 2.4 and 0 and 8 ± 5.3
  Granulocytes Periglom.: 5.3 ± 4.5 and 4 and 7 ± 8
  Granulocytes Perivasc.: 3 ± 0.8 and 8 ± 2.6 and 5.3 ± 4.6
[2]; 4 hour cold ischemia
  Granulocyte count in the intraglomerular area, effect in words: numerically but not significantly lowered
  PMN infiltrate, effect in words: decreases the PMN infiltrate
[2]; [10]
  Granulocytes Inrterstitial: 3 ± 1.7 cells per high-power field
  Granulocytes Intraglom: 5.5 ± 2 cells per high-power field
  Granulocytes Intravasc.: 1.1 ± 1.7
  Granulocytes Periglom.: 2.1 ± 1.1
  Granulocytes Perivasc.: 4.1 ± 2.9
[2]; [13]
  Granulocytes Inrterstitial: 2.5 ± 4.6 and 4.8 ± 5.6 and 1.6 ± 1.2
  Granulocytes Intraglom: 5.0 ± 6.0 and 3.7 ± 3.0 and 7.7 ± 6.5
  Granulocytes Intravasc.: 0.2 ± 0.4 and 0 and 3.0 ± 4.0
  Granulocytes Periglom.: 1.0 ± 1.8 and 3.2 ± 1.9 and 2.2 ± 1.2
  Granulocytes Perivasc.: 1.0 ± 1.3 and 6.8 ± 8.9 and 4.5 ± 4.4
[2]; 6 hour ischemia, p<0.01
  Interstitial inflammatory cells, effect in words: significantly lowered
[3]; 4 and 6 hour ischemia
  Number of MHC class II cells, effect in words: not affected
[3]; [8]
  MHC II+ interstitial cells: 8.7 ± 3.4
[3]; 4 h cold ischemia, individual rats, high-power fields (×400)
  MHC II+ interstitial cells: 5.1 ± 6.2 and 9.1 ± 2 and 11.9 ± 6.3
[3]; [10]
  MHC II+ interstitial cells: 14.4 ± 4.7
[3]; 6 h cold ischemia, individual rats, high-power fields (×400)
  MHC II+ interstitial cells: 10.5 ± 4.7 and 13.1 ± 7 and 19.7 ± 3.3
[4]; [14]
  Histological damage Glomerular (score): 0 score
  Histological damage Interstitial (score): 2.5 score and 2 score (2×)
  Histological damage Tubular (score): 1.5 score and 0.7 score and 0.5 score
[4]; [8]
  Histological damage Glomerular (score): 0 score
  Histological damage Interstitial (score): 2 ± 0.3 score
  Histological damage Tubular (score): 0.7 ± 0.6 score
[4]; 4 hour ischemia
  Tubular changes, effect in words: attenuated but did not normalize tubular changes
[4]; [15]
  Histological damage Glomerular (score): 0 score
  Histological damage Interstitial (score): 3 score
  Histological damage Tubular (score): 1.7 score (2×) and 1.2 score
[4]; [10]
  Histological damage Glomerular (score): 0 score
  Histological damage Interstitial (score): 3 score
  Histological damage Tubular (score): 1.5 ± 0.3 score
[4]; 6 hour ischemia
  Focal ischemic changes in the glomeruli, effect in words: prevented
[5]; allogeneic transplant, 20 mg/kg, 16 and 24 hours
  Serum creatinine levels, effect in words: significant prevention of increased serum creatinine levels
[5]; [16]
  Plasma Creatinine 16 h: 1.05 mg/dL and 1.2 mg/dL and 1 mg/dL and 0.84 mg/dL and 1.01 mg/dL
  Plasma Creatinine 24 h: 1.3 mg/dL and 1.39 mg/dL and 0.87 mg/dL and 0.69 mg/dL and 0.85 mg/dL
[5]; group mean, 20 mg/kg
  Plasma Creatinine 16 h: 1.02 mg/dL
  Plasma Creatinine 24 h: 1.02 mg/dL
Mouse model
  Inhibition of chemotaxis in vivo: inhibit chemotaxis in vivo
[6]
  Inhibition of PMN infiltration: inhibit PMN infiltration
[7]
  Inhibition of PMN infiltration: inhibit PMN infiltration
IL-8
  Inhibition of the chemotaxis of neutrophils induced by IL-8: selective in vitro inhibitors
